In patent publication US20060252749A1, “Lacosamide for add-on therapy of psychosis” (SRZ Properties, Inc., priority 2005, published 2006):
Entries after “also recorded” stand apart in the source; their conditions may differ.

Tests used:
C57BL/6J mice = assay: Prepulse inhibition (PPI) of the acoustic startle reflex in mice; format: in vivo; conditions: for Mean PPI: 30 min prior to testing
Excerpt: Chow and water were provided ad libitum for the duration of the study.
Responses were sampled every ms. The inter-trial interval was variable with an average of 15 s (range from 10 to 20 s).

schizophrenia = conditions: cited from earlier work; for Effect on symptoms of schizophrenia: add-on to antipsychotics (Citrome 2003, p. 86); for Effect on psychosis / symptoms of schizophrenia, other anticonvulsants: reports on use in schizophrenia (Citrome 2003, p. 85)
GABA receptor subtypes = conditions: cited from earlier work
[1] = system: voltage-gated sodium channels; conditions: cited from earlier work
[2] = system: voltage-gated calcium channels; conditions: cited from earlier work
potassium currents = conditions: cited from earlier work
[3] = range 60-400; cited from earlier work

CN1CCN(C2=Nc3cc(Cl)ccc3Nc3ccccc32)CC1 [clozapine]
Mean PPI (C57BL/6J mice; VEH 1/clozapine 3 mg/kg i.p., PPI expressed as a percentage of the basic startle response): 45 ± 2

CCCC(CCC)C(=O)O [Valproate]
Effect on symptoms of schizophrenia (schizophrenia): preferentially reduce the positive symptoms
Effect on onset of action of the antipsychotic (schizophrenia; add-on to olanzapine or risperidone (Casey et al. 2003)): enhance the onset of action

CC1(C)O[C@@H]2[C@@H](CO[C@@]3(COS(N)(=O)=O)OC(C)(C)O[C@@H]23)O1 [topiramate]
Effect on psychosis / symptoms of schizophrenia, other anticonvulsants (schizophrenia): deterioration in both positive and negative symptoms

NC(=O)N1c2ccccc2C=Cc2ccccc21 [carbamazepine]
Clinical outcome compared with antipsychotic monotherapy (schizophrenia; add-on to haloperidol): worse clinical outcome
Improvement on the total BPRS (brief psychiatric rating scale) (schizophrenia; another study on the use of carbamazepine): failure to detect significant improvement

NCC1(CC(=O)O)CCCCC1 [gabapentin]
Effect on psychosis / symptoms of schizophrenia, other anticonvulsants (schizophrenia): general worsening of psychosis

COC[C@@H](NC(C)=O)C(=O)NCc1ccccc1 [lacosamide, (R)-2-acetamide-N-benzyl-3-methoxypropionamide]
Mean PPI (C57BL/6J mice; lacosamide 3 mg/kg/VEH 2 i.p.): 29 ± 3
Mean PPI (C57BL/6J mice; lacosamide 10 mg/kg/VEH 2 i.p.): 34 ± 3
Mean PPI (C57BL/6J mice; lacosamide 30 mg/kg/VEH 2 i.p.): 27 ± 2
Effect on prepulse inhibition compared to vehicle (C57BL/6J mice; lacosamide administered alone, any dose tested): did not have any significant effect; also recorded: no significant effect
Direct interaction with known GABA receptor subtypes (GABA receptor subtypes): does not directly interact
Inhibition of voltage-gated sodium channels [1]: does not inhibit
Inhibition of voltage-gated calcium channels [2]: does not inhibit
Potentiation of potassium currents (potassium currents): does not potentiate

Nc1nnc(-c2cccc(Cl)c2Cl)c(N)n1 [lamotrigine]
Effect on symptoms of schizophrenia (schizophrenia): preferentially reduce the positive symptoms
Effect in schizophrenia when added to clozapine (schizophrenia; added to clozapine, double-blind placebo controlled clinical trial, treatment-resistant schizophrenia): beneficial for the treatment of treatment-resistant schizophrenia; also recorded: improvement of positive, not negative symptoms

CCCCCCCCCC(=O)OCCN1CCN(CC/C=C2/c3ccccc3Sc3ccc(Cl)cc32)CC1 [Zuclopenthixol decanoate]
Minimum effective dose [3]: 200 mg/2 weeks
